Laboratory results reported in BindingDB's records for patent US11981680 (Bristol Myers Squibb, 2024).

Biological target: Protein-arginine deiminase type-4 (Homo sapiens, UniProt Q9UM07)
Test: RFMS Human PAD4 Functional Assay
Procedure: Compounds were solubilized in 100% DMSO to achieve a10 mM compound concentration. Compound stock solutions were stored at RT. A series of dilutions were prepared in DMSO and mixed 8 times with 20 μL mixing volume. Final top concentration of compound in the assay is 50 μM. Final assay conditions were as follows:Reaction volume: 26 μlAssay buffer: 25 mM hepes, pH 7.5, 5 mM NaCl, 1 mM DTT, 0.2 mg/ml BSA, 0.01% CHAPS, 50 μM Calcium, and 5 μM TPENFinal concentrations: 5 nM hPAD4 enzyme, 250 μM BAEE, and 0.5% DMSOTotal incubation time: 30 mins compound and enzyme preincubation at 37° C., 90 min enzyme/substrate reaction, 30 min reaction with phenyl glyoxal at 37° C.Stop solution: 40 μl 5% TCA in ACN0.13 μL of compound solution was added to 13 μL of 10 nM PAD4 in assay buffer. After 30 min 13 μl of 500 μM of BAEE was added in 25 mM hepes, pH 7.5, 5 mM NaCl, 1 mM DTT, 0.2 mg/ml BSA, 0.01% CHAPS, 50 μM Calcium, 5 μM TPEN was added and the reaction incubated for 90 min at 37° C. The enzymatic reaction was quenched by addition of 15 μl of 6.1N TCA, 100% Final Concentration is 20%, 35 μl of 8.5 mM phenyl glyoxal (final concentration 4 mM) is then added and the reaction is incubated for 30 min at 37° C.After 30 minutes the plates are spun down to remove all precipitate. The enzyme reaction was quenched with an equal volume of methanol containing internal standard (modified citrulline). […]

Sequence of Protein-arginine deiminase type-4 (Q9UM07 whole entry): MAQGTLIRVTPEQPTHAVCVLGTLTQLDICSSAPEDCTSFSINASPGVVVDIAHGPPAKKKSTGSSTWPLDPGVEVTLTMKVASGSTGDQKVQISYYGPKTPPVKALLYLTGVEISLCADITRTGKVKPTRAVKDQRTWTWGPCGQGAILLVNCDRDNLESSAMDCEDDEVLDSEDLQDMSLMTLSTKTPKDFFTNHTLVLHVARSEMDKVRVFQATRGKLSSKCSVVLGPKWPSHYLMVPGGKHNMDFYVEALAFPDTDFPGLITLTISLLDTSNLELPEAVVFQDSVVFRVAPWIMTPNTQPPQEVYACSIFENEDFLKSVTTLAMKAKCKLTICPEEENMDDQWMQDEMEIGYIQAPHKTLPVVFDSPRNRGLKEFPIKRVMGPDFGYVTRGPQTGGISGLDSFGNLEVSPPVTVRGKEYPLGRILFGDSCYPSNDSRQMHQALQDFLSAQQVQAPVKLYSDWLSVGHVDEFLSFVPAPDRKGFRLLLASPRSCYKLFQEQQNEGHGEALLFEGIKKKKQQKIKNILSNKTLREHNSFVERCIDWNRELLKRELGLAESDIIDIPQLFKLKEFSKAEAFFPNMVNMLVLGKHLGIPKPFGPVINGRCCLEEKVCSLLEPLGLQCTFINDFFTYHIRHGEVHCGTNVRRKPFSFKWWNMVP

IC50: 35 nM
Compound: COc1cc(C(=O)N2C[C@H]3CC[C@@H]2[C@@H]3N)cc2nc(-c3cc4scc(-c5cn[nH]c5)c4n3CC3CC3)n(C)c12 [US11981680, Example 39]
